Experiment [1] has as its system IGF-1R. Nature of the experiment: Biacore analysis of the IGF-1R-Fc mutant library: M13-C06 Fab binding to receptor-Fc captured on M13-C06 chip. On the set-up: species or system human. The settings on record: for Biacore Relative RUmax: M13-C06 Fab binding to mutant hIGF-1R-Fc captured on M13-C06 chip. The source says:
Both mIGF-1R-Fc and hIGF-1R-Fc bind with high apparent affinity to the M13-C06, M14-C03, and M14-G11 sensorchip surfaces described above due to their highly multivalent nature induced by the incorporation of two separate homodimeric regions (IGF-1R and IgG1-Fc). To distinguish between the actual high affinity binding hIGF-1R-Fc to M13-C06 and the low affinity binding of mIGF-1R-Fc to M13-C06, the receptor-Fc fusions were captured on the M13-C06 sensorchip surface followed by an additional soluble M13-C06 Fab binding event. […] After, completion of the receptor-Fc loading step, flow rates were elevated to 5 μl/min. 10 nM, […], and 1 nM M13-C06 Fab concentrations were injected (50 μL) subsequent to the loading of each receptor-Fc construct. At the end of each sensorgram, the flow rate was elevated to 30 μl/min and the chip surface was regenerated by 2×10 μL injections of 0.1 M glycine, pH 2.
On the technique in general: SPR reads the build-up and loss of mass on a sensor chip optically.

The test system of experiment [2] is IGF-1R-Fc. Nature of the experiment: Surface plasmon resonance analysis of the IGF-1R-Fc mutant library (46 mutants). The experiment is classed as binding, human. Particulars: for C06 binding: M13-C06 Fab; for C06 binding / C03 binding / G11 binding / P1E2 binding / αIR3 binding: KD relative to WT hIGF-1R-Fc; for C03 binding: M14-C03 Fab; for G11 binding: M14-G11 Fab; for P1E2 binding: P1E2 antibody; for αIR3 binding: αIR3 antibody. As to the method:
Surface plasmon resonance (SPR) experiments were performed on a Biacore 3000 instrument set to 25° C. Both mIGF-1R-Fc and hIGF-1R-Fc bind with high apparent affinity to research grade CM5 sensorchip surfaces containing immobilized M13-C06, M14-C03, and M14-G11. The antibody sensorchip surfaces were prepared by injecting each antibody (diluted 100 μg/mL in 10 mM Acetate, pH 4.0) over EDC/NHS-activated sensorchip surfaces according to the standard protocol of the manufacturer. The ability of mIGF-1R-Fc to bind the antibody surfaces was the result of high apparent avidity of the protein. Both hIGF-1R-Fc and mIGF-1R-Fc proteins oligomerize due to the incorporation of two separate homodimeric regions (IGF-1R and IgG1-Fc). To distinguish between actual high affinity antibody binding to hIGF-1R-Fc and low affinity antibody binding to mIGF-1R-Fc, the receptor-Fc fusions were captured on the M13-C06 and M14-G11 sensorchip surfaces followed by an additional injection of antibody (αIR3 and P1E2) or antibody Fab (M13-C06, M14-C03, and M14-G11). […] After, completion of the receptor-Fc loading step, flow rates were elevated to 5 μl/min. Solutions containing M13-C06 Fab or αIR3 antibody at 10 nM, 3 nM, or 1 nM or M14-C03 Fab, M14-G11 Fab, or P1E2 antibody at 30 nM, 10 nM, or 3 nM were injected (50 μL) subsequent to the loading of each receptor-Fc construct. Dissociation was measured for 7 minutes after the antibody injections were complete. Finally, the flow rate was elevated to 30 μL/min and the chip surfaces were regenerated by 2×10 μL injections of 0.1 M glycine, pH 2.
M13-C06, M14-C03, M14-G11, P1E2 and αIR3 were assayed for their ability to interact with each of the mutant IGF-1R-Fc fusion constructs using surface plasmon resonance (Biacore). To remove the uncertain concentrations of the IGF-1R-Fc fusion constructs as a variable in the assay, each mutant construct was captured on a research grade CM5 chip containing ˜10,000 RU immobilized […], M14-C03, and M14-G11 antibody. To enhance our ability to visualize attenuations in antibody binding to the captured mutant IGF-1R constructs, we utilized enzymatically derived M13-C06, M14-C03, and M14-G11 antigen binding fragments (Fabs).

With “SD015: hIGF-1R-Fc mutant H464E (Table 20), E464H”, the “binding activity toward M13-C06” value in experiment [1] (SPR and tr-FRET, both assays) is given as “virtually no binding activity”. In addition, in experiment [2], the “effect of mutation on M13-C06 and M14-C03 Fab binding” value was “complete ablation of the binding reaction”; the C06 binding result is “S (Strong (S): binding to antibody was ablated by mutation)”; the C03 binding entry is reported as “S (Strong (S): binding to antibody was ablated by mutation)”; the G11 binding result is reported as “NE (No effect (NE): measured KD within 2.5-fold of WT hIGF-1R-Fc)”.
In the case of SD009: hIGF-1R-Fc mutant E264K, the “Biacore Relative RUmax” value in experiment [1] is listed as 0.6. Moreover, in experiment [2], the C06 binding entry is “NE (No effect (NE): measured KD within 2.5-fold of WT hIGF-1R-Fc)”, the C03 binding entry was “NE (No effect (NE): measured KD within 2.5-fold of WT hIGF-1R-Fc)”, the G11 binding result is listed as “NE (No effect (NE): measured KD within 2.5-fold of WT hIGF-1R-Fc)” and the P1E2 binding result was “NE (No effect (NE): measured KD within 2.5-fold of WT hIGF-1R-Fc)”. For the same substance, in experiment [2], the αIR3 binding result is listed as “NE (No effect (NE): measured KD within 2.5-fold of WT hIGF-1R-Fc)”.
SD001: hIGF-1R-Fc mutant Y28A: the “Biacore Relative RUmax” value in experiment [1] came to 0.6. Besides, in experiment [2], the C06 binding result is reported as “NE (No effect (NE): measured KD within 2.5-fold of WT hIGF-1R-Fc)” and the G11 binding result was “NE (No effect (NE): measured KD within 2.5-fold of WT hIGF-1R-Fc)”.
Consider SD012: hIGF-1R-Fc mutant E303G, for which the “Biacore Relative RUmax” value in experiment [1] came out at 0.3. In experiment [2], the C06 binding entry is reported as “NE (No effect (NE): measured KD within 2.5-fold of WT hIGF-1R-Fc)”, the C03 binding entry is given as “NE (No effect (NE): measured KD within 2.5-fold of WT hIGF-1R-Fc)”, the G11 binding result is listed as “W (Weak (W): measured KD between 2.5-10-fold higher than WT)” and the P1E2 binding entry was “W (Weak (W): measured KD between 2.5-10-fold higher than WT)”. Further, the αIR3 binding result in experiment [2] was “W (Weak (W): measured KD between 2.5-10-fold higher than WT)”. Moreover, the “loss in affinity for M14-G11 Fab based on the measured KD” value in experiment [2] (mutant versus wild-type) is reported as “approximately 3 fold”.
Turning to SD007: hIGF-1R-Fc mutant N237G, the “Biacore Relative RUmax” value in experiment [1] stood at 1.3. In experiment [2], the C06 binding result is recorded as “NE (No effect (NE): measured KD within 2.5-fold of WT hIGF-1R-Fc)”, the C03 binding result is given as “NE (No effect (NE): measured KD within 2.5-fold of WT hIGF-1R-Fc)”, the G11 binding entry is listed as “NE (No effect (NE): measured KD within 2.5-fold of WT hIGF-1R-Fc)” and the P1E2 binding entry is on record as “NE (No effect (NE): measured KD within 2.5-fold of WT hIGF-1R-Fc)”. The αIR3 binding entry in experiment [2] was “NE (No effect (NE): measured KD within 2.5-fold of WT hIGF-1R-Fc)”.
For the substance SD013: hIGF-1R-Fc mutant D405K, the “Biacore Relative RUmax” value in experiment [1] is recorded as 0.7. Further, in experiment [2], the C06 binding entry is “NE (No effect (NE): measured KD within 2.5-fold of WT hIGF-1R-Fc)”, the C03 binding result is “NE (No effect (NE): measured KD within 2.5-fold of WT hIGF-1R-Fc)” and the G11 binding result was “NE (No effect (NE): measured KD within 2.5-fold of WT hIGF-1R-Fc)”.
Regarding SD002: hIGF-1R-Fc mutant M156A, the “Biacore Relative RUmax” value in experiment [1] is given as 1.2. In experiment [2], the C06 binding result is given as “NE (No effect (NE): measured KD within 2.5-fold of WT hIGF-1R-Fc)” and the G11 binding result is on record as “NE (No effect (NE): measured KD within 2.5-fold of WT hIGF-1R-Fc)”.
As for SD010: hIGF-1R-Fc mutant G271D, in experiment [1], the “Biacore Relative RUmax” value was 0.8. In experiment [2], the C06 binding result was “NE (No effect (NE): measured KD within 2.5-fold of WT hIGF-1R-Fc)”, the C03 binding entry is “NE (No effect (NE): measured KD within 2.5-fold of WT hIGF-1R-Fc)”, the G11 binding result is “NE (No effect (NE): measured KD within 2.5-fold of WT hIGF-1R-Fc)” and the P1E2 binding result is listed as “NE (No effect (NE): measured KD within 2.5-fold of WT hIGF-1R-Fc)”. For the same substance, in experiment [2], the αIR3 binding result was “NE (No effect (NE): measured KD within 2.5-fold of WT hIGF-1R-Fc)”.
Turning to SD018: hIGF-1R-Fc mutant E665A, the “Biacore Relative RUmax” value in experiment [1] stood at 1.7. In experiment [2], the C06 binding result is reported as “NE (No effect (NE): measured KD within 2.5-fold of WT hIGF-1R-Fc)”, the C03 binding result was “NE (No effect (NE): measured KD within 2.5-fold of WT hIGF-1R-Fc)” and the G11 binding entry was “NE (No effect (NE): measured KD within 2.5-fold of WT hIGF-1R-Fc)”.
With SD004: hIGF-1R-Fc mutant S210H_A211Q, the “Biacore Relative RUmax” value in experiment [1] came to 0.8. Besides, in experiment [2], the C06 binding result was “NE (No effect (NE): measured KD within 2.5-fold of WT hIGF-1R-Fc)”, the C03 binding result is “NE (No effect (NE): measured KD within 2.5-fold of WT hIGF-1R-Fc)” and the G11 binding entry is listed as “NE (No effect (NE): measured KD within 2.5-fold of WT hIGF-1R-Fc)”.
Consider SD011: hIGF-1R-Fc mutant G285S_S286T, for which, in experiment [1], the “Biacore Relative RUmax” value is 1.8. Moreover, in experiment [2], the C06 binding result was “NE (No effect (NE): measured KD within 2.5-fold of WT hIGF-1R-Fc)”, the C03 binding result was “NE (No effect (NE): measured KD within 2.5-fold of WT hIGF-1R-Fc)”, the G11 binding entry was “NE (No effect (NE): measured KD within 2.5-fold of WT hIGF-1R-Fc)” and the P1E2 binding entry is reported as “NE (No effect (NE): measured KD within 2.5-fold of WT hIGF-1R-Fc)”. Further, the αIR3 binding result in experiment [2] was “NE (No effect (NE): measured KD within 2.5-fold of WT hIGF-1R-Fc)”.
Consider SD003: hIGF-1R-Fc mutant T188F, for which, in experiment [1], the “Biacore Relative RUmax” value is on record as 1.0. Besides, in experiment [2], the C06 binding result was “NE (No effect (NE): measured KD within 2.5-fold of WT hIGF-1R-Fc)” and the G11 binding entry is reported as “NE (No effect (NE): measured KD within 2.5-fold of WT hIGF-1R-Fc)”.
On to SD014: hIGF-1R-Fc mutant K412A_A413Q, for which the “Biacore Relative RUmax” value in experiment [1] is 0.6. In addition, in experiment [2], the C06 binding entry is recorded as “NE (No effect (NE): measured KD within 2.5-fold of WT hIGF-1R-Fc)”, the C03 binding result is “NE (No effect (NE): measured KD within 2.5-fold of WT hIGF-1R-Fc)”, the G11 binding result was “NE (No effect (NE): measured KD within 2.5-fold of WT hIGF-1R-Fc)” and the P1E2 binding entry is “NE (No effect (NE): measured KD within 2.5-fold of WT hIGF-1R-Fc)”. In addition, the αIR3 binding result in experiment [2] was “NE (No effect (NE): measured KD within 2.5-fold of WT hIGF-1R-Fc)”.
With SD017: hIGF-1R-Fc mutant I650S, the “Biacore Relative RUmax” value in experiment [1] turned out to be 2.0. In experiment [2], the C06 binding entry is “NE (No effect (NE): measured KD within 2.5-fold of WT hIGF-1R-Fc)”, the C03 binding entry is listed as “NE (No effect (NE): measured KD within 2.5-fold of WT hIGF-1R-Fc)” and the G11 binding result is given as “NE (No effect (NE): measured KD within 2.5-fold of WT hIGF-1R-Fc)”.
As to “SD019: hIGF-1R-Fc mutant E739W L741F (Table 20), A739W_I741F (Table 17)”, the “Biacore Relative RUmax” value in experiment [1] was determined as 1.9. In addition, in experiment [2], the C06 binding entry is “NE (No effect (NE): measured KD within 2.5-fold of WT hIGF-1R-Fc)”, the C03 binding entry is on record as “NE (No effect (NE): measured KD within 2.5-fold of WT hIGF-1R-Fc)” and the G11 binding entry is “NE (No effect (NE): measured KD within 2.5-fold of WT hIGF-1R-Fc)”.
Regarding SD016: hIGF-1R-Fc mutant D531Q_V532N, the “Biacore Relative RUmax” value in experiment [1] is listed as 2.0. For the same substance, in experiment [2], the C06 binding result was “NE (No effect (NE): measured KD within 2.5-fold of WT hIGF-1R-Fc)”, the C03 binding result is “NE (No effect (NE): measured KD within 2.5-fold of WT hIGF-1R-Fc)” and the G11 binding entry was “NE (No effect (NE): measured KD within 2.5-fold of WT hIGF-1R-Fc)”.

Source of the values: patent US20090291088A1, “THERAPEUTIC COMBINATIONS OF ANTI-IGF-1R ANTIBODIES AND OTHER COMPOUNDS” (Biogen Idec MA Inc., priority 2008, published 2009).
